Test results from patent US20240368566A1, “PYK2-DERIVED PEPTIDES FOR INHIBITING INVADOPODIA-MEDIATED CANCER METASTASIS” (BAR-ILAN UNIVERSITY, priority 2023, published 2024).
“Also recorded” adds a separate entry of the source.

Tests used:
[1] = tested on: MDA-MB-231 cells; assay: ECM degradation assay; type: cell-based, human; details: 24 h on fluorescent fibronectin/gelatin matrix; compared to control peptide
Protocol: The in vitro matrix degradation assay was performed as described in Genna et al., 2018 (supra). Briefly, MatTek dishes were treated with 2.5% gelatin/2.5% sucrose, cross-linked with 0.5% glutaraldehyde, treated with 10 μg/ml of fluorescently labeled fibronectin (Alexa 568; Invitrogen, Thermo Fischer Scientific), and then with 1 mg/ml NaBH4 in PBS. 125,000 cells were plated on the fibronectin/gelatin matrix in Pyk2-PRR or control peptides and allowed to degrade for 24 h. Cells were then fixed in 3.7% paraformaldehyde, and random fields were imaged using an inverted fluorescent microscope (Leica AF6000; 40×, NA 1.3, oil objective). ECM degradation was analyzed by quantifying the average degraded area in pixels per field using ImageJ.

[2] = tested on: MDA-MB-231 cells; assay: 3D scratch wound assay in Matrigel; type: cell-based, human; details: 0.1, 1, 5 μM peptide; versus scrambled control
Protocol: The 3D scratch wound assay was performed as described in Meirson et al. Targeting invadopodia-mediated breast cancer metastasis by using ABL kinase inhibitors. Oncotarget 2018; 9: 22158-22183. Briefly, 96 well Image Lock microtiter plates (Essen Bioscience) were coated with 100 μg/ml Matrigel (cat #354234; Corning, New-York, NY, USA). Following overnight incubation at 37° C., MDA-MB-231 cells were plated at a final concentration of 350,000 cells/ml and allowed to adhere for 12-16 h in the presence of Pyk2-PRR or control peptides. Following wounding of the bottom Matrigel-cells layer, a top layer of Matrigel was added to a final concentration of 2 mg/ml and allowed to polymerize for 30 min at 37° C. Pyk2-PRR or control scrambled peptides were then added again in DMEM/10% FBS to a final concentration of 0.1, 1, or 5 μM, with or without the MMP inhibitor GM6001 ([…]). Plates were placed in a 37° C. heated chamber, and images were collected using the IncuCyte® Zoom platform (Essen Bioscience; 20×, NA 0.60, air objective). Phase images were collected every one hour for a total of 12 h using the IncuCyte® acquisition software.

[3] = tested on: 4T1 cells; assay: Spontaneous lung metastasis clonogenic assay in 4T1 xenograft mouse model; type: in vivo, BALB/c female mice; details: 10 mg/kg once a day for eight days, intraperitoneal injection, HIV-TAT fused peptide; versus scrambled control
Protocol: All experimental procedures were conducted following the Federation of Laboratory Animal Science Association (FELSA) and were approved by the Bar-Ilan University animal use and care committee. Mouse xenograft tumors were generated by injecting 10^6 4T1 cells resuspended in 20% collagen I (BD Biosciences, Franklin Lakes, NJ, USA) in PBS into the lower-left mammary gland of 8-week-old BALB/c female mice. […] 4T1 cells have intrinsic resistance to 6-thioguanine, which enables precise quantification of metastatic cells, even when they are disseminated at sub-microscopic levels at distant organs, upon excision and digestion of selected organs. The clonogenic assay is based on a principle by which one colony represents one metastatic cell. Briefly, spontaneous lung metastasis was measured in BALB/c mice bearing orthotopic 4T1 tumors of equal size (1-1.2 cm in diameter). Lungs were excised and minced and plated in RPMI/10% FBS in the presence of 6-thioguanine to select for tumor cells only. Cells were plated in a 5% CO2 incubator at 37° C. for 14 days to form 4T1 colonies. On day 14 after plating, the medium was removed from dishes, and colonies were fixed in 4% paraformaldehyde for one hour at room temperature. Colonies were then stained in 2% crystal violet solution and thoroughly washed with PBS. Plates were allowed to air dry, and colonies in each plate were quantified. […]

## C[C@H](NC(=O)[C@@H](N)[C@@H](C)O)C(=O)N[C@@H](Cc1ccccc1)C(=O)N[C@@H](CCC(N)=O)C(=O)N[C@@H](CCC(=O)O)C(=O)N1CCC[C@H]1C(=O)N1CCC[C@H]1C(=O)N1CCC[C@H]1C(=O)N[C@@H](CCCCN)C(=O)N1CCC[C@H]1C(=O)N[C@@H](CO)C(=O)N[C@@H](CCCNC(=N)N)C(=O)N1CCC[C@H]1C(=O)N[C@@H](CCCCN)C(=O)N[C@@H](Cc1ccc(O)cc1)C(=O)N[C@@H](CCCNC(=N)N)C(=O)N1CCC[C@H]1C(=O)N1CCC[C@H]1C(=O)N1CCC[C@H]1C(=O)O [Pyk2-PRR2, TAFQEPPPKPSRPKYRPPP]
[1]
  matrix degradation (degradation area): significant decrease
[2]
  invasion towards a scratch wound in 3D Matrigel: significantly reduced ability to close the gap
[3]
  lung metastases (6-thioguanine-resistant colonies): significantly fewer lung metastases; also recorded: can suppress in vivo breast tumor metastasis; also recorded: significantly inhibited lung metastasis
